From ChEMBL document CHEMBL1142505, “Synthesis and antitubercular activity of ferrocenyl diaminoalcohols and diamines” (2008)
Converted amounts (≈) assume the structure as drawn.

tested on: Mycobacterium tuberculosis; test: Antitubercular activity against Mycobacterium tuberculosis H37Rv after 2 days by mycobacteria growth indicator tube system; type: functional; conditions: 48 h

Row | Compound | MIC [µg/mL]
1 | c1ccc(CNCCNCc2ccccc2)cc1 | > 64
2 | CC(CNCc1ccccc1)NCc1ccccc1 (stereo not drawn) | > 64
3 | CC[C@@H](CO)NCCN[C@@H](CC)CO [ETHAMBUTOL] | 2 (≈ 9.79 µM)
